Values of other authors in US20260216071A1, “NANOPARTICULATE FORMULATION” (NEWIMMUNE II, LLC, priority 2022, published 2026).

CCCCc1nc(Cl)c(CO)n1Cc1ccc(-c2ccccc2-c2nn[nH]n2)cc1 [Losartan, (2-butyl-4-chloro-1-{[2′-(1H-tetrazol-5-yl)biphenyl-4-yl]methyl}-1H-imidazol-5-yl) methanol]
absorption following oral administration: well absorbed
